Literature values in patent publication US20110066230A1, “Fluorinated GHRH Antagonists” (priority 2009, published 2011).

Key:
pituitary receptors = biological target: T1, pituitary receptors (Homo sapiens, UniProt Q02643); conditions: biological activity on the pituitary
T1 sequence (Q02643 23-423): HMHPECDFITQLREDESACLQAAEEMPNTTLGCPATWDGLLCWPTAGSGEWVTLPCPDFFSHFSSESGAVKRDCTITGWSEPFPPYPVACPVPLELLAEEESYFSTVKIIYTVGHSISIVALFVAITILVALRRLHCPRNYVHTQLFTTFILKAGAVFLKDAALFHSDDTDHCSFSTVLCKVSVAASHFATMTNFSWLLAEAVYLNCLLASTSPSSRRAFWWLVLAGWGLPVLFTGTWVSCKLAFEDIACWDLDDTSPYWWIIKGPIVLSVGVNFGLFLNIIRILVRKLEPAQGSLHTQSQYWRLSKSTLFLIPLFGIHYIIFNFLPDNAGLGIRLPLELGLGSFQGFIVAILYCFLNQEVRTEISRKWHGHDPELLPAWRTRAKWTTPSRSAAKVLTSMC

[1] = tested on: rat anterior pituitary adenylate cyclase
[2] = normal subjects, large doses (400 μg/kg)

| potency retained relative to native GH-RH (pituitary receptors) | activation of rat anterior pituitary adenylate cyclase by hGH-RH(1-29)NH2 [1] | Substance | GH levels (GH secretion; a patient with acromegaly) | nocturnal GH secretion (GH secretion; [2]) | response to GH-RH (GH secretion; [2]) |
| --- | --- | --- | --- | --- | --- |
| ≥ 50% | – | Tyr-Ala-Asp-Ala-Ile^5-Phe-Thr-Asn-Ser-Tyr^10-Arg-Lys-Val-Leu-Gly^15-Gln-Leu-Ser-Ala-Arg^20-Lys-Leu-Leu-Gln-Asp^25-Ile-Met-Ser-Arg^29-NH2 [GH-RH(1-29)] | – | – | – |
| – | prevent the activation | [Ac-Tyr^1,D-Arg^2]hGH-RH(1-29)NH2 [standard antagonist] | reduced GH levels | eliminated nocturnal GH secretion | inhibited the response to GH-RH |
